± gives the expanded uncertainty stated by the source.
Assay: mn = molality of the nth substance listed, in mol/kg
Details: 350 kPa, Liquid; for apparent molar heat capacity: Extra sensitive DSC

## OCC(O)CO [glycerol] + O
278.15 K, m1 = 0.02
  apparent molar heat capacity: 210 ± 86 J/K/mol
  mass density: 1000.56 ± 0.17 kg/m3
278.15 K, m1 = 0.05
  apparent molar heat capacity: 208 ± 35 J/K/mol
  mass density: 1001.19 ± 0.17 kg/m3
278.15 K, m1 = 0.1
  apparent molar heat capacity: 208.3 ± 18 J/K/mol
  mass density: 1002.32 ± 0.17 kg/m3
278.15 K, m1 = 0.2501
  apparent molar heat capacity: 206.7 ± 7.7 J/K/mol
  mass density: 1005.96 ± 0.18 kg/m3
278.15 K, m1 = 0.5002
  apparent molar heat capacity: 206 ± 4.8 J/K/mol
  mass density: 1011.28 ± 0.19 kg/m3
278.15 K, m1 = 1.001
  apparent molar heat capacity: 203.2 ± 3.6 J/K/mol
  mass density: 1021.37 ± 0.21 kg/m3
278.15 K, m1 = 2
  apparent molar heat capacity: 200 ± 3.1 J/K/mol
  mass density: 1040.06 ± 0.25 kg/m3
278.15 K, m1 = 3.003
  apparent molar heat capacity: 192.1 ± 3.1 J/K/mol
  mass density: 1056.11 ± 0.28 kg/m3
278.15 K, m1 = 4.999
  apparent molar heat capacity: 196.4 ± 2.9 J/K/mol
  mass density: 1082.51 ± 0.33 kg/m3
283.15 K, m1 = 0.02
  apparent molar heat capacity: 220 ± 80 J/K/mol
  mass density: 1000.32 ± 0.17 kg/m3
283.15 K, m1 = 0.05
  apparent molar heat capacity: 219 ± 33 J/K/mol
  mass density: 1000.93 ± 0.17 kg/m3
283.15 K, m1 = 0.1
  apparent molar heat capacity: 219.7 ± 17 J/K/mol
  mass density: 1002.05 ± 0.17 kg/m3
283.15 K, m1 = 0.2501
  apparent molar heat capacity: 218.3 ± 7.2 J/K/mol
  mass density: 1005.34 ± 0.18 kg/m3
283.15 K, m1 = 0.5002
  apparent molar heat capacity: 217.4 ± 4.2 J/K/mol
  mass density: 1010.56 ± 0.19 kg/m3
283.15 K, m1 = 1.001
  apparent molar heat capacity: 215.1 ± 3 J/K/mol
  mass density: 1020.54 ± 0.21 kg/m3
283.15 K, m1 = 2
  apparent molar heat capacity: 212.1 ± 2.5 J/K/mol
  mass density: 1038.67 ± 0.24 kg/m3
283.15 K, m1 = 3.003
  apparent molar heat capacity: 206.8 ± 2.3 J/K/mol
  mass density: 1054.65 ± 0.28 kg/m3
283.15 K, m1 = 4.999
  apparent molar heat capacity: 207.4 ± 2.1 J/K/mol
  mass density: 1080.68 ± 0.33 kg/m3
288.15 K, m1 = 0.02
  apparent molar heat capacity: 229 ± 77 J/K/mol
  mass density: 999.7 ± 0.17 kg/m3
288.15 K, m1 = 0.05
  apparent molar heat capacity: 227 ± 32 J/K/mol
  mass density: 1000.3 ± 0.16 kg/m3
288.15 K, m1 = 0.1
  apparent molar heat capacity: 227.7 ± 16 J/K/mol
  mass density: 1001.41 ± 0.17 kg/m3
288.15 K, m1 = 0.2501
  apparent molar heat capacity: 226.4 ± 6.9 J/K/mol
  mass density: 1004.63 ± 0.17 kg/m3
288.15 K, m1 = 0.5002
  apparent molar heat capacity: 225.6 ± 4.1 J/K/mol
  mass density: 1009.79 ± 0.18 kg/m3
288.15 K, m1 = 1.001
  apparent molar heat capacity: 223.5 ± 2.9 J/K/mol
  mass density: 1019.64 ± 0.2 kg/m3
288.15 K, m1 = 2
  apparent molar heat capacity: 220.6 ± 2.4 J/K/mol
  mass density: 1037.48 ± 0.24 kg/m3
288.15 K, m1 = 3.003
  apparent molar heat capacity: 215.7 ± 2.1 J/K/mol
  mass density: 1053.13 ± 0.27 kg/m3
288.15 K, m1 = 4.999
  apparent molar heat capacity: 215.28 ± 1.9 J/K/mol
  mass density: 1078.92 ± 0.33 kg/m3
293.15 K, m1 = 0.02
  apparent molar heat capacity: 235 ± 72 J/K/mol
293.15 K, m1 = 0.05
  apparent molar heat capacity: 233 ± 30 J/K/mol
293.15 K, m1 = 0.1
  apparent molar heat capacity: 234 ± 15 J/K/mol
293.15 K, m1 = 0.2501
  apparent molar heat capacity: 233 ± 6.5 J/K/mol
293.15 K, m1 = 0.5002
  apparent molar heat capacity: 232.3 ± 3.9 J/K/mol
293.15 K, m1 = 1.001
  apparent molar heat capacity: 230.4 ± 2.7 J/K/mol
293.15 K, m1 = 2
  apparent molar heat capacity: 227.5 ± 2.2 J/K/mol
293.15 K, m1 = 3.003
  apparent molar heat capacity: 222.75 ± 2 J/K/mol
293.15 K, m1 = 4.999
  apparent molar heat capacity: 221.83 ± 1.8 J/K/mol
298.15 K, m1 = 0.02
  apparent molar heat capacity: 240 ± 68 J/K/mol
  mass density: 997.59 ± 0.17 kg/m3
298.15 K, m1 = 0.05
  apparent molar heat capacity: 239 ± 26 J/K/mol
  mass density: 998.2 ± 0.17 kg/m3
298.15 K, m1 = 0.1
  apparent molar heat capacity: 239.7 ± 14 J/K/mol
  mass density: 999.29 ± 0.17 kg/m3
298.15 K, m1 = 0.2501
  apparent molar heat capacity: 238.6 ± 6.2 J/K/mol
  mass density: 1002.43 ± 0.17 kg/m3
298.15 K, m1 = 0.5002
  apparent molar heat capacity: 238 ± 3.7 J/K/mol
  mass density: 1007.48 ± 0.18 kg/m3
298.15 K, m1 = 1.001
  apparent molar heat capacity: 236.1 ± 2.7 J/K/mol
  mass density: 1017.07 ± 0.2 kg/m3
298.15 K, m1 = 2
  apparent molar heat capacity: 233.27 ± 2.1 J/K/mol
  mass density: 1034.46 ± 0.24 kg/m3
298.15 K, m1 = 3.003
  apparent molar heat capacity: 228.47 ± 2 J/K/mol
  mass density: 1049.73 ± 0.27 kg/m3
298.15 K, m1 = 4.999
  apparent molar heat capacity: 227.35 ± 1.7 J/K/mol
  mass density: 1074.96 ± 0.32 kg/m3
303.15 K, m1 = 0.02
  apparent molar heat capacity: 245 ± 63 J/K/mol
303.15 K, m1 = 0.05
  apparent molar heat capacity: 244 ± 25 J/K/mol
303.15 K, m1 = 0.1
  apparent molar heat capacity: 244.7 ± 13 J/K/mol
303.15 K, m1 = 0.2501
  apparent molar heat capacity: 243.6 ± 5.9 J/K/mol
303.15 K, m1 = 0.5002
  apparent molar heat capacity: 243 ± 3.6 J/K/mol
303.15 K, m1 = 1.001
  apparent molar heat capacity: 241.1 ± 2.5 J/K/mol
303.15 K, m1 = 2
  apparent molar heat capacity: 238.33 ± 2.1 J/K/mol
303.15 K, m1 = 3.003
  apparent molar heat capacity: 233.46 ± 1.9 J/K/mol
303.15 K, m1 = 4.999
  apparent molar heat capacity: 232.27 ± 1.7 J/K/mol
308.15 K, m1 = 0.02
  apparent molar heat capacity: 249 ± 60 J/K/mol
  mass density: 994.55 ± 0.18 kg/m3
308.15 K, m1 = 0.05
  apparent molar heat capacity: 248.4 ± 24 J/K/mol
  mass density: 995.16 ± 0.17 kg/m3
308.15 K, m1 = 0.1
  apparent molar heat capacity: 249 ± 12 J/K/mol
  mass density: 996.23 ± 0.17 kg/m3
308.15 K, m1 = 0.2501
  apparent molar heat capacity: 247.9 ± 5.5 J/K/mol
  mass density: 999.33 ± 0.17 kg/m3
308.15 K, m1 = 0.5002
  apparent molar heat capacity: 247.4 ± 3.4 J/K/mol
  mass density: 1004.29 ± 0.17 kg/m3
308.15 K, m1 = 1.001
  apparent molar heat capacity: 245.5 ± 2.5 J/K/mol
  mass density: 1013.67 ± 0.19 kg/m3
308.15 K, m1 = 2
  apparent molar heat capacity: 242.76 ± 2 J/K/mol
  mass density: 1030.71 ± 0.23 kg/m3
308.15 K, m1 = 3.003
  apparent molar heat capacity: 237.83 ± 1.8 J/K/mol
  mass density: 1045.67 ± 0.26 kg/m3
308.15 K, m1 = 4.999
  apparent molar heat capacity: 236.6 ± 1.6 J/K/mol
  mass density: 1070.41 ± 0.31 kg/m3
313.15 K, m1 = 0.02
  apparent molar heat capacity: 253 ± 55 J/K/mol
313.15 K, m1 = 0.05
  apparent molar heat capacity: 252.1 ± 22 J/K/mol
313.15 K, m1 = 0.1
  apparent molar heat capacity: 252.9 ± 12 J/K/mol
313.15 K, m1 = 0.2501
  apparent molar heat capacity: 251.9 ± 5.2 J/K/mol
313.15 K, m1 = 0.5002
  apparent molar heat capacity: 251.3 ± 3.3 J/K/mol
313.15 K, m1 = 1.001
  apparent molar heat capacity: 249.4 ± 2.4 J/K/mol
313.15 K, m1 = 2
  apparent molar heat capacity: 246.75 ± 2 J/K/mol
313.15 K, m1 = 3.003
  apparent molar heat capacity: 241.83 ± 1.8 J/K/mol
313.15 K, m1 = 4.999
  apparent molar heat capacity: 240.56 ± 1.6 J/K/mol
318.15 K, m1 = 0.02
  apparent molar heat capacity: 257 ± 52 J/K/mol
  mass density: 990.73 ± 0.18 kg/m3
318.15 K, m1 = 0.05
  apparent molar heat capacity: 255.7 ± 21 J/K/mol
  mass density: 991.32 ± 0.18 kg/m3
318.15 K, m1 = 0.1
  apparent molar heat capacity: 256.3 ± 11 J/K/mol
  mass density: 992.37 ± 0.18 kg/m3
318.15 K, m1 = 0.2501
  apparent molar heat capacity: 255.4 ± 4.9 J/K/mol
  mass density: 995.42 ± 0.17 kg/m3
318.15 K, m1 = 0.5002
  apparent molar heat capacity: 254.8 ± 3.1 J/K/mol
318.15 K, m1 = 1.001
  apparent molar heat capacity: 252.98 ± 2.3 J/K/mol
318.15 K, m1 = 2
  apparent molar heat capacity: 250.33 ± 1.9 J/K/mol
318.15 K, m1 = 3.003
  apparent molar heat capacity: 245.4 ± 1.8 J/K/mol
318.15 K, m1 = 4.999
  apparent molar heat capacity: 244.12 ± 1.6 J/K/mol
